Measured values reported in patent US7132258B1, “Nucleic acid encoding vitamin D receptor related polypeptide” (University of Massachusetts, priority 1998, dated 2006).

Experiments:
histone = assay: Histone acetyltransferase (HAT) activity; format: biochemical; conditions: compared with the p/CAF; unpublished data
TR (LBD) of hTRβ = target: T1, TR (LBD) of hTRβ (Homo sapiens, UniProt P10828); assay: Yeast two-hybrid interaction with TR; format: binding; conditions: β-galactosidase ONPG assay, 1 μM ligand or vehicle
T1 construct: TR (LBD) of hTRβ); expressed in transfected cells; host or cells: Saccharomyces cerevisiae Y190
T1 sequence (P10828 217-461 limits assumed): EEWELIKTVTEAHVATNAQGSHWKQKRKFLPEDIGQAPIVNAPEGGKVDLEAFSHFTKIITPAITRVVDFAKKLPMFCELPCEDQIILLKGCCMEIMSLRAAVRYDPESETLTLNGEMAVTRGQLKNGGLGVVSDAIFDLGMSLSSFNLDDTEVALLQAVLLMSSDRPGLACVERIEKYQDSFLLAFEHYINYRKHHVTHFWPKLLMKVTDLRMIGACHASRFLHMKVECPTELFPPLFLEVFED
T1 sequence (Q9Y6Q9 401-1204 E704Q partner limits assumed): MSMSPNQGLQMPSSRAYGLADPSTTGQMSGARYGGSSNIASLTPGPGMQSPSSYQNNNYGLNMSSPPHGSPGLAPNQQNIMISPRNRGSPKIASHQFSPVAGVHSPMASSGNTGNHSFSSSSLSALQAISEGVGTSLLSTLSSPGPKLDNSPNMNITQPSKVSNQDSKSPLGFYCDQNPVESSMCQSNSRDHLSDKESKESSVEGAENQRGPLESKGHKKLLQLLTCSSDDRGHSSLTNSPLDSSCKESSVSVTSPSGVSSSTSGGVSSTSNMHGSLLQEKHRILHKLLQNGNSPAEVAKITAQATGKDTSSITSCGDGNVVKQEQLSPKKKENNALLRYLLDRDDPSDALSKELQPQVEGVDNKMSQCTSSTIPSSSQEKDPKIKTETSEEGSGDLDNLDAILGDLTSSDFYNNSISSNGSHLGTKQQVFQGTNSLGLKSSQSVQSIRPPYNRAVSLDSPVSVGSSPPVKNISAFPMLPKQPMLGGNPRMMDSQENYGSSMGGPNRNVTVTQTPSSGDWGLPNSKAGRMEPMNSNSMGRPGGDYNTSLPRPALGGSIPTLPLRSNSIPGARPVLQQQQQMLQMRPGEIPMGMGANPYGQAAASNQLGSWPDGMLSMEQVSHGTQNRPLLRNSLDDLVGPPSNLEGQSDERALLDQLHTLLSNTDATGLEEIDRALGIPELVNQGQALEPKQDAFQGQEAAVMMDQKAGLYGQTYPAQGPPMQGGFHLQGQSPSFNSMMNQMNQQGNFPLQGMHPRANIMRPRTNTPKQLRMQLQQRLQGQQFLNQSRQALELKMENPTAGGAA
Description: The protein—protein interactions between RAC3 and several steroid/nuclear receptors were analyzed by the yeast two-hybrid system. The original two-hybrid clone, RAC3.1 in pGAD10 vector, was retransformed together with yeast expression vectors for Gal4 DBD fusion of selected hormone receptor genes into Y190 cells. The receptors used include RAR (full-length hRARα), RXR (full-length hRXRα), VDR (LBD of human Vitamin D receptor), PPAR (LBD of mPPARα), TR (LBD) of hTRβ), COUP (LBD of COUP-TFI). Three independent colonies from each transformation were selected and analyzed for expression of […] activities by liquid ONPG assay (FIG. 6) after treatment with 1 μM of corresponding ligands (closed bars), or with equal concentration of vehicle alone (open bars). […] The ligands used in these experiments were atRA, VitD3 (1,25-dihydroxyvitamin D3), and Wy (Wy 14,642). […] In the absence of ligand, RAC3 can interact with RAR and PPAR.

CBP = assay: Far-Western analysis of interaction with GST-CBP fusions; format: binding; conditions: 35S-labeled full-length RAC3
Description: GST fusion proteins were overexpressed and purified from DH5α cells on glutathione agarose beads. The fusion proteins were separated on denaturing protein gels (SDS-PAGE) and electroblotted onto nitrocellulose filters in a transfer buffer (25 mM Tris-HCl, pH 8.3; 192 mM glycine; 0.01% SDS). After denaturation in 6 M guanidine hydrochloride (GnHCl), the proteins were renatured by stepwise dilution of GnHCl to 0.187 M in HB buffer (25 mM Hepes, pH 7.7; 25 mM NaCl; 5 mM MgC12; 1 mM DTT). The filters were then saturated with blocking buffer (5% non-fat milk, then 1% milk in HB buffer plus 0.05% NP40) at 4° C. overnight. In vitro translated 35S-labeled proteins were generated in reticulocyte lysate (Promega) and were diluted into a hybridization buffer (20 mM Hepes, pH 7.7; 75 mM KCl; 0.1 mM EDTA; 2.5 mM MgC12; 0.05% NP40; 1% milk; 1 mM DTT). […] The bound 35S-labeled proteins were detected by autoradiography.
Since SRC-1 can interact with the general transcriptional coactivator CBP and p300 (Yao, T. P., et al. (1996) Proc Natl Acad Sci USA 93, 10626–31.), it was determined whether RAC3 can also interact with CBP by far-Western analyses. Serial GST-CBP fusions covering the SRC-1 interacting domain were analyzed for interactions with ^35S-labeled full-length RAC3, SRC-1 and RAC3-AD (FIGS. 3A, B and C). […]

HAT activity (histone): very weakly
interaction with TR (TR (LBD) of hTRβ): ligand-dependent manner
Substance: RAC3: transcriptional coactivator of steroid/nuclear receptors, protein of about 1417 amino acids (SEQ ID NO:2); RAC3.1 is the two-hybrid clone, amino acids 401–1204
interaction with CBP fragments C and D (CBP): interacts strongly
